Source: patent US11958859B2, “Use of pyridoxal acetal salts as water-triggered pro-fragrances” (Florida Gulf Coast University Board of Trustees, priority 2018, dated 2024)

What was measured:
[1] = Hydrolysis (acetal cleavage) of pyridoxal acetal salts in D2O/DMSO-d6, release of the alcohol monitored by time-dependent 1H NMR; type: physicochemical; details: for release of alcohol from the respective pyridoxal acetal: 0.2 M, 30% D2O in DMSO-d6, after 22 hours
Method: The hydrolysis of the target alcohol from the pyridoxal acetal salt in the presence of D2O was monitored by ^1H NMR spectroscopy. This was accomplished by comparing the formation of hemiacetal C—H peak to the loss of the acetal C—H peak. For substrate 3a, the integration of the acetal C—H peak at 6.58 ppm was compared to the integration of the pyridoxal hemiacetal C—H peak at 6.41 ppm hourly to determine conversion. A stack plot of the NMR spectra for 50% D2O solution in DMSO-d6 over 20 hours is illustrated in FIG. 2.
To determine the kinetics of the hydrolysis with respect to the concentration of water, acetal 3a was exposed to varying concentrations of D2O The release of ethanol from 3a was measured at concentrations of 25%, 35%, 50%, and 100% D2O in DMSO-d6 and is plotted in FIG. 3. […] The 100% D2O trial provides full cleavage after 10 hours whereas a lowest concentration of D2O (25%) provides the slowest release at only 28% cleaved after 25 hours. The 50% D2O trial provided 74% release after 25 hours and the 35% D2O trial provided 42% release.
The rate of release for ethanol (blue), isopropanol (red), 2-phenylethanol (green), and geraniol (purple) were monitored at a 0.2 M concentration of 30% D2O in DMSO-d6 from the respective pyridoxal acetal. […] In all cases, the acetals hydrolyze to release the target molecule and pyridoxal HCl quantitatively. Since other fragrance delivery systems can lose material in side reactions (H. Q. N. Gunaratne et al., Chem. Commun., 2015, 51, 4455), the high fidelity in the release for these alcohols is significant.
The acetal cleavage was measured by comparing the integration of Ha to Hb whereas Hb/(Ha+Hb) provides the percent completion for the acetal cleavage for 3a and 3b. The stack plots in FIGS. 7-11 provide a visual counterpart to the graphs. 3c had some overlap between Ha and Hb so the fully separated methyl groups of the isopropyl were integrated instead.
3a (0.1636 mmol) was dissolved in 0.4 mL of DMSO-d6 (except for 100% D2O) and varying amounts of D2O were added, as shown in the table below (see corresponding stack plots in FIGS. 7-11).

Row | release of alcohol from the respective pyridoxal acetal [1] [%] | acetal cleaved (release of ethanol) ([1]; 25% D2O in DMSO-d6, after 25 hours) [%] | release of ethanol ([1]; 35% D2O in DMSO-d6 (time not restated; 25 hours implied)) [%] | release of ethanol ([1]; 50% D2O in DMSO-d6, after 25 hours) [%] | cleavage of acetal (release of ethanol) ([1]; 100% D2O, after 10 hours, 1H NMR) | melting point [°C] | SMILES | dependence of release rate on water concentration ([1]; 25%, 35%, 50%, 100% D2O in DMSO-d6, FIG. 3)
1 | 35 | 28 | 42 | 74 | full cleavage | 97 to 103 | CCOC1OCc2cnc(C)c(O)c21.Cl (stereo not shown) [3a, 1-ethoxy-7-hydroxy-6-methyl-1,3-dihydrofuro[3,4-c]pyridin-5-ium chloride] | rate increases with higher concentrations of D2O
2 | 37 | – | – | – | – | 116 to 121 | Cc1ncc2c(c1O)C(OC(C)C)OC2.Cl (stereo not shown) [3c, 7-hydroxy-1-isopropoxy-6-methyl-1,3-dihydrofuro[3,4-c]pyridin-5-ium chloride] | –
3 | – | – | – | – | – | 168 to 172 | Cc1ncc2c(c1O)C(OCCc1ccccc1)OC2.Cl (stereo not shown) | –
